Reference: paper PMC8048568, “Synthesis of σ Receptor Ligands with a Spirocyclic System Connected with a Tetrahydroisoquinoline Moiety via Different Linkers” (Chemmedchem, 2021)
Like-named read-outs stand apart in the source and are kept apart here.

Legend:
σ2 receptor = target: T1, σ2 receptor (Rattus norvegicus, UniProt Q5U3Y7); assay: σ2 receptor competitive radioligand binding assay with [3H]DTG, σ1 masked with (+)-pentazocine; conditions: for inhibition at 1 µM: read-out: inhibition of the radioligand, σ2, 1 μM of the test compound; for inhibition at 1 µM / inhibition of the radioligand, σ2: [3H]DTG, rat liver; for Ki: K i [nM]±SEM σ2, [3H]DTG, rat liver homogenate, mean of 3 experiments; for inhibition of the radioligand, σ2: 1 μM of the test compound, 1 µM
T1 sequence (Q5U3Y7 1-176): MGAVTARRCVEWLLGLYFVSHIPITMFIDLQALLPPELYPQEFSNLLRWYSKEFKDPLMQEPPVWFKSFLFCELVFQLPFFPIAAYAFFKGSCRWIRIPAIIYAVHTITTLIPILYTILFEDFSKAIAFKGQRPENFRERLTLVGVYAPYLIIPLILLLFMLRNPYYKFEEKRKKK

σ1 receptor [1] = target: σ1 receptor (Cavia porcellus, UniProt Q60492); assay: σ1 receptor competitive radioligand binding assay with [3H]-(+)-pentazocine; conditions: for Ki: K i [nM]±SEM σ1, [3H]-(+)-pentazocine, guinea pig brain homogenate, mean of 3 experiments; for inhibition at 1 µM: read-out: inhibition of the radioligand, σ1
Sequence of σ1 receptor (Cavia porcellus, UniProt Q60492) (Q60492 whole entry): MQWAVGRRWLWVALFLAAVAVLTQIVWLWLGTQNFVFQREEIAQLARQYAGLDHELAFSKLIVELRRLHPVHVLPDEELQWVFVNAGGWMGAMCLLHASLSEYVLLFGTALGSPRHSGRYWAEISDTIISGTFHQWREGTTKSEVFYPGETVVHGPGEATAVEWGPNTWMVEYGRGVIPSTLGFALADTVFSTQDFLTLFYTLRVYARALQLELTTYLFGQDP

σ1 receptor [2] = conditions: cited from earlier work

SMILES	Ki (σ1 receptor [1]) [nM]	Ki (σ2 receptor) [nM]	also measured
COc1cc2c(cc1OC)CN(C(=O)CN1CCC3(CC1)OC(OC)Cc1ccccc13)CC2 (centres unmarked) [Compound 21, 1‐(6,7‐Dimethoxy‐3,4‐dihydroisoquinolin‐2(1H)‐yl)‐2‐{3‐methoxy‐3,4‐dihydrospiro[[2]benzopyran‐1,4′‐piperidin]‐1′‐yl}ethan‐1‐one]	319	–	inhibition at 1 µM (σ2 receptor): 19%
COc1cc2c(cc1OC)CN(C(=O)CN1CCC3(CC1)OC(OC)c1ccccc13)CC2 (centres unmarked) [Compound 23, 1‐(6,7‐Dimethoxy‐3,4‐dihydroisoquinolin‐2(1H)‐yl)‐2‐{3‐methoxy‐3H‐spiro[[2]benzofuran‐1,4′‐piperidin]‐1′‐yl}ethan‐1‐one]	–	–	inhibition at 1 µM (σ2 receptor): 0%; inhibition at 1 µM (σ1 receptor [1]): 0%
COc1cc2c(cc1OC)CN(CC(=O)N1CCC3(CC1)OC(OC)Cc1ccccc13)CC2 (centres unmarked) [Compound 25, 2‐(6,7‐Dimethoxy‐3,4‐dihydroisoquinolin‐2(1H)‐yl)‐1‐(3‐methoxy‐3,4‐dihydrospiro[[2]benzopyran‐1,4′‐piperidin]‐1′‐yl)ethan‐1‐one]	518	534	–
COc1cc2c(cc1OC)CN(CC(=O)N1CCC3(CC1)OC(OC)c1ccccc13)CC2 (centres unmarked) [Compound 28, 2‐(6,7‐Dimethoxy‐3,4‐dihydroisoquinolin‐2(1H)‐yl)‐1‐{3‐methoxy‐3H‐spiro[[2]benzofuran‐1,4′‐piperidin]‐1′‐yl}ethan‐1‐one]	–	3400	inhibition at 1 µM (σ1 receptor [1]): 19%
COc1cc2c(cc1OC)CN(CCN1CCC3(CC1)OC(OC)Cc1ccccc13)CC2 (centres unmarked) [Compound 30, 1′‐[2‐(6,7‐Dimethoxy‐3,4‐dihydroisoquinolin‐2(1H)‐yl)ethyl]‐3‐methoxy‐3,4‐dihydrospiro[[2]benzopyran‐1,4′‐piperidine]]	608	348	–
COc1cc2c(cc1OC)CN(C(=O)CNC1CCC3(CC1)OC(OC)Cc1ccccc13)CC2 (stereo not drawn) [cis‐22, cis‐1‐(6,7‐Dimethoxy‐3,4‐dihydroisoquinolin‐2(1H)‐yl)‐2‐[N‐(3‐methoxy‐3,4‐dihydrospiro[[2]benzopyran‐1,1′‐cyclohexan]‐4′‐yl)amino]ethan‐1‐one]	740	–	inhibition at 1 µM (σ2 receptor): 11%
Fc1ccc(-n2cc(CCCCN3CCC4(CC3)OCc3ccccc34)c3ccccc32)cc1 [siramesine]	–	–	Ki (σ1 receptor [2]; read-out: K i σ1 receptor): 17 nM
COc1cc2c(cc1OC)CN(C(=O)CNC1CCC3(CC1)OC(OC)c1ccccc13)CC2 (stereo not drawn) [trans‐24, trans‐1‐(6,7‐Dimethoxy‐3,4‐dihydroisoquinolin‐2(1H)‐yl)‐2‐[N‐(3‐methoxy‐3H‐spiro[[2]benzofuran‐1,1′‐cyclohexan]‐4′‐yl)amino]ethan‐1‐one]	–	–	inhibition of the radioligand, σ2 (σ2 receptor): 0%; inhibition at 1 µM (σ1 receptor [1]): 15%
COc1cc2c(cc1OC)CN(CC(=O)NC1CCC3(CC1)OC(OC)Cc1ccccc13)CC2 (stereo not drawn) [trans‐26, trans‐2‐(6,7‐Dimethoxy‐3,4‐dihydroisoquinolin‐2(1H)‐yl)‐N‐(3‐methoxy‐3,4‐dihydrospiro[[2]benzopyran‐1,1′‐cyclohexan]‐4′‐yl)acetamide]	–	–	inhibition at 1 µM (σ2 receptor): 4%; inhibition at 1 µM (σ1 receptor [1]): 7%

More lines, main results first:

Ki (σ1 receptor [1]) [nM]	Ki (σ2 receptor) [nM]	SMILES	also measured
1600	–	COc1cc2c(cc1OC)CN(C(=O)CNC1CCC3(CC1)OC(OC)c1ccccc13)CC2 (stereo not drawn) [cis‐24, cis‐1‐(6,7‐Dimethoxy‐3,4‐dihydroisoquinolin‐2(1H)‐yl)‐2‐[N‐(3‐methoxy‐3H‐spiro[[2]benzofuran‐1,1′‐cyclohexan]‐4′‐yl)amino]ethan‐1‐one]	inhibition of the radioligand, σ2 (σ2 receptor): 9%
1000	371	COc1cc2c(cc1OC)CN(CC(=O)NC1CCC3(CC1)OC(OC)Cc1ccccc13)CC2 (stereo not drawn) [cis‐26, cis‐2‐(6,7‐Dimethoxy‐3,4‐dihydroisoquinolin‐2(1H)‐yl)‐N‐(3‐methoxy‐3,4‐dihydrospiro[[2]benzopyran‐1,1′‐cyclohexan]‐4′‐yl)acetamide]	–
712	2100	COc1cc2c(cc1OC)CN(CCCC(=O)NC1CCC3(CC1)OC(OC)Cc1ccccc13)CC2 (stereo not drawn) [cis‐27, cis‐4‐(6,7‐Dimethoxy‐3,4‐dihydroisoquinolin‐2(1H)‐yl)‐N‐(3‐methoxy‐3,4‐dihydrospiro[[2]benzopyran‐1,1′‐cyclohexan]‐4′‐yl)butanamide]	–
129	–	COc1cc2c(cc1OC)CN(CC(=O)NC1CCC3(CC1)OC(OC)c1ccccc13)CC2 (stereo not drawn) [cis‐29, cis‐2‐(6,7‐Dimethoxy‐3,4‐dihydroisoquinolin‐2(1H)‐yl)‐N‐(3‐methoxy‐3H‐spiro[[2]benzofuran‐1,1′‐cyclohexan]‐4′‐yl)acetamide]	inhibition at 1 µM (σ2 receptor): 0%
251	200	COc1cc2c(cc1OC)CN(CCNC1CCC3(CC1)OC(OC)Cc1ccccc13)CC2 (stereo not drawn) [cis‐31, cis‐N‐[2‐(6,7‐Dimethoxy‐3,4‐dihydroisoquinolin‐2(1H)‐yl)ethyl]‐3‐methoxy‐3,4‐dihydrospiro[[2]benzopyran‐1,1′‐cyclohexan]‐4′‐amine]	–
1300	1900	COc1cc2c(cc1OC)CN(CC(=O)NC1CCC3(CC1)OC(OC)c1ccccc13)CC2 (stereo not drawn) [trans‐29, trans‐2‐(6,7‐Dimethoxy‐3,4‐dihydroisoquinolin‐2(1H)‐yl)‐N‐(3‐methoxy‐3H‐spiro[[2]benzofuran‐1,1′‐cyclohexan]‐4′‐yl)acetamide]	–
1400	499	COc1cc2c(cc1OC)CN(CCNC1CCC3(CC1)OC(OC)Cc1ccccc13)CC2 (stereo not drawn) [trans‐31, trans‐N‐[2‐(6,7‐Dimethoxy‐3,4‐dihydroisoquinolin‐2(1H)‐yl)ethyl]‐3‐methoxy‐3,4‐dihydrospiro[[2]benzopyran‐1,1′‐cyclohexan]‐4′‐amine]	–
